# Read-outs that look alike come from different tables or passages of the source.
# Tests used:
# [1] = system: Staphylococcus aureus ATCC 6538; assay: MIC, two-fold dilution microtiter, S. aureus ATCC 6538; assay type: cell-based; conditions: Staphylococcus aureus, ATCC6538; S. aureus ATCC 6538; Iso-Sensitest broth; 18-24 h, 37° C; read-out: MIC
# S. aureus TOUR L 165 [2] = assay: MIC, two-fold dilution microtiter, S. aureus TOUR L 165; assay type: cell-based, Staphylococcus aureus; conditions: Staphylococcus aureus, TOURL165, S. aureus TOUR L 165, read-out: MIC
# S. aureus TOUR L 1282 = assay: MIC, two-fold dilution microtiter, rifampicin resistant S. aureus TOUR L 1282; assay type: cell-based; conditions: Staphylococcus aureus, TOURL1282, rifampicin resistant strain
# [3] = system: Streptococcus pyogenes C203; assay: MIC, two-fold dilution microtiter, S. pyogenes C203; assay type: cell-based; conditions: Streptococcus pyogenes, Todd-Hewitt broth, 18-24 h, 37° C, read-out: MIC
# Method: (§1) The minimum inhibitory concentration (MIC) of representative compounds of the invention was determined using two-fold dilution method in microtiter system. The media used were: Todd-Hewitt broth (Difco) for steptococci; Iso-Sensitest broth (Oxoid) for staphylococci and gram-negative bacteria. The final inoculum was about 10^4 cfμ/ml. […] For M. tuberculosis H37 RV the inoculum consisted of 0.5-1% of a 7-9 day culture in Dubos medium. The tests were carried out in Kirschner medium supplemented with 10% horse serum. Observations were made after 7-days incubation at 37° C.
# S. faecalis ATCC 7080 = assay: MIC, two-fold dilution microtiter, S. faecalis ATCC 7080; assay type: cell-based; conditions: Enterococcus faecalis, ATCC7080, 18-24 h, 37° C, read-out: MIC
# S. pneumoniae UC 41 = assay: MIC, two-fold dilution microtiter, S. pneumoniae UC 41; assay type: cell-based; conditions: Streptococcus pneumoniae, UC41, Todd-Hewitt broth, 18-24 h, 37° C, read-out: MIC
# [4] = system: Proteus vulgaris XI9H ATCC 881; assay: MIC, two-fold dilution microtiter, P. vulgaris; assay type: cell-based; conditions: Proteus vulgaris, ATCC881; P. vulgaris XI9H ATCC 881; Iso-Sensitest broth; 18-24 h, 37° C; read-out: MIC
# [5] = system: Escherichia coli SKF 12140; assay: MIC, two-fold dilution microtiter, E. coli SKF 12140; assay type: cell-based; conditions: Escherichia coli, SKF12140, Iso-Sensitest broth, 18-24 h, 37° C, read-out: MIC
# [6] = system: Klebsiella pneumoniae ISM; assay: MIC, two-fold dilution microtiter, K. pneumoniae ISM; assay type: cell-based; conditions: Klebsiella pneumoniae
# [7] = system: Pseudomonas aeruginosa ATCC 10145; assay: MIC, two-fold dilution microtiter, P. aeruginosa ATCC 10145; assay type: cell-based; conditions: Pseudomonas aeruginosa, ATCC10145; P. aeruginosa ATCC 10145; Iso-Sensitest broth; 18-24 h, 37° C; read-out: MIC
# [8] = system: Mycobacterium tuberculosis H37RV ATCC 9360; assay: MIC, M. tuberculosis H37RV, Kirschner medium; assay type: cell-based; conditions: Mycobacterium tuberculosis, 168 h, 10% horse serum, 7 days, 37° C, read-out: MIC
# Method: as §1
# S. aureus tour L 165 [9] = assay: experimental septicemia in mice (S. aureus); assay type: in vivo; conditions: Staphylococcus aureus, once daily for three days, survival on 10th day
# Method: The antimicrobial activity of the compounds of the invention is also confirmed in "in vivo" tests. The animals (groups of five mice) were infected by intraperitoneal injection of 16-hour broth culture of S. aureus tour L 165. Inocula were adjusted so that untreated animals died of septicemia within 48 hours. Animals were treated once daily for three days starting immediately after infection. On the 10th day the value for the ED50 in mg/kg/day was calculated by the method of […]-KARBER (Finney, D. J., Statistical method in biological assay, page 524. C. Griffin Ltd., London, 1952), on the basis of the percentage of surviving animals at each dose.
# [10] = Iso-Sensitest broth, 18-24 h, 37° C
# [11] = supplemented with 30% bovine serum
# [12] = K. pneumoniae ISM, Iso-Sensitest broth, 18-24 h, 37° C, read-out: MIC
SMILES,MIC [1],MIC (S. aureus TOUR L 165 [2]; [10]),MIC (S. aureus TOUR L 165 [2]; [11]),MIC (S. aureus TOUR L 1282),MIC [3],MIC (S. faecalis ATCC 7080),MIC (S. pneumoniae UC 41),MIC [4],MIC [5],"MIC [6, 12]",MIC [7],MIC [8],"ED50 (S. aureus tour L 165 [9]; TOURL165, 240 h, sc)","ED50 (S. aureus tour L 165 [9]; TOURL165, po, 240 h, os)",MIC [6]
"COC1C=COC2(C)Oc3c(C)c(O)c4c(O)c(c5sc(N6CCN(C)CC6)nc5c4c3C2=O)NC(=O)C(C)=CC=CC(C)C(O)C(C)C(O)C(C)C(OC(C)=O)C1C (stereo not drawn) [Example 3a, 2'-(4""-Methyl-1""-piperazinyl) rifamycin P]",0.001 µg/mL,0.004 µg/mL,0.004 µg/mL,32 µg/mL,0.032 µg/mL,2 µg/mL,0.032 µg/mL,8 µg/mL,16 µg/mL,32 µg/mL,16 µg/mL,1 µg/mL,0.16 mg/kg,0.36 mg/kg,–
"COC1C=COC2(C)Oc3c(C)c(O)c4c(O)c(c5sc(N6CCCCC6)nc5c4c3C2=O)NC(=O)C(C)=CC=CC(C)C(O)C(C)C(O)C(C)C(OC(C)=O)C1C (stereo not drawn) [Example 2, 2'-(1""-Piperidinyl) rifamycin P]",0.003 µg/mL,0.006 µg/mL,0.2 µg/mL,> 100 µg/mL,0.05 µg/mL,1.6 µg/mL,0.05 µg/mL,6.25 µg/mL,12.5 µg/mL,25 µg/mL,6.25 µg/mL,0.2 µg/mL,0.16 mg/kg,0.63 mg/kg,–
"CCOC(=O)N1CCN(c2nc3c(s2)c2c(O)c4c(O)c(C)c5c(c43)C(=O)C(C)(OC=CC(OC)C(C)C(OC(C)=O)C(C)C(O)C(C)C(O)C(C)C=CC=C(C)C(=O)N2)O5)CC1 (stereo not drawn) [Example 1e, 2'(4""-ethoxycarbonyl-1""-piperazinyl) rifamycin P]",0.032 µg/mL,0.064 µg/mL,0.064 µg/mL,128 µg/mL,0.064 µg/mL,4 µg/mL,0.064 µg/mL,16 µg/mL,16 µg/mL,32 µg/mL,32 µg/mL,2 µg/mL,–,–,–
"CCN(CC)c1nc2c(s1)c1c(O)c3c(O)c(C)c4c(c32)C(=O)C(C)(OC=CC(OC)C(C)C(OC(C)=O)C(C)C(O)C(C)C(O)C(C)C=CC=C(C)C(=O)N1)O4 (stereo not drawn) [Example 5, 2'-(N,N-diethylamino) rifamycin P]",0.032 µg/mL,0.064 µg/mL,0.5 µg/mL,> 128 µg/mL,0.064 µg/mL,1 µg/mL,0.032 µg/mL,32 µg/mL,32 µg/mL,64 µg/mL,–,0.5 µg/mL,0.21 mg/kg,0.82 mg/kg,–
"COc1ccc(N2CCN(c3nc4c(s3)c3c(O)c5c(O)c(C)c6c(c54)C(=O)C(C)(OC=CC(OC)C(C)C(OC(C)=O)C(C)C(O)C(C)C(O)C(C)C=CC=C(C)C(=O)N3)O6)CC2)cc1 (stereo not drawn) [Example 3e, 2'-[4""(4'""-methoxyphenyl)-1-piperazinyl]rifamycin P]",0.064 µg/mL,0.064 µg/mL,0.5 µg/mL,> 128 µg/mL,0.125 µg/mL,4 µg/mL,0.064 µg/mL,64 µg/mL,8 µg/mL,–,8 µg/mL,0.25 µg/mL,0.63 mg/kg,1.9 mg/kg,> 128 µg/mL
"COC1C=COC2(C)Oc3c(C)c(O)c4c(O)c(c5sc(N6CCOCC6)nc5c4c3C2=O)NC(=O)C(C)=CC=CC(C)C(O)C(C)C(O)C(C)C(OC(C)=O)C1C (stereo not drawn) [Example 1b, 2'-(4""-morpholinyl) rifamycin P]",0.001 µg/mL,0.002 µg/mL,0.008 µg/mL,64 µg/mL,0.032 µg/mL,1 µg/mL,0.016 µg/mL,8 µg/mL,16 µg/mL,32 µg/mL,16 µg/mL,2 µg/mL,0.21 mg/kg,0.21 mg/kg,–

# Source: patent publication US4880789A, “2'-Substituted-4-deoxy-thiazolo(5,4-c)-rifamycin SV derivatives” (Gruppo Lepetit S.P.A., priority 1985, dated 1989)
